According to PubChem BioAssay AID330 (DTP/NCI, 2004):
Several values for one entry are separate records, joined by “and”; a condition that tells them apart may be missing. Equal values may be shown once. Inconclusive results and toxic doses are left out. The calls were made as follows: active = survival T/C of 150% or more; inactive = T/C below 125% in these data.

Tested on: P388 leukemia ip, CD2F1 mice, survival T/C
Assay: NCI In Vivo Anticancer Drug Screen. Data for tumor model P388 Leukemia (intraperitoneal) in CD2F1 (CDF1) mice
Settings: endpoint: median survival time, higher = longer survival
Summary of the method: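 Mice carrying the transplanted tumor received test compound or vehicle. Survival was recorded in each group, and the value is the treated-group measurement divided by that of the vehicle-treated control group.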

[1] = dose: 50.0 mg/kg/injection, schedule: Q01DX005 (ip), vehicle: saline
[2] = dose: 100.0 mg/kg/injection, schedule: Q01DX005 (ip), vehicle: saline
[3] = dose: 100.0 mg/kg/injection, schedule: Q04DX003 (ip), vehicle: saline
[4] = dose: 50.0 mg/kg/injection, schedule: Q01DX005 (ip), vehicle: saline with Tween-80
[5] = dose: 100.0 mg/kg/injection, schedule: Q01DX005 (ip), vehicle: saline with Tween-80
[6] = dose: 200.0 mg/kg/injection, schedule: Q01DX005 (ip), vehicle: saline with Tween-80
[7] = dose: 12.5 mg/kg/injection, schedule: Q01DX005 (ip), vehicle: Klucel (hydroxypropylcellulose) (HPC)
[8] = dose: 50.0 mg/kg/injection, schedule: Q01DX005 (ip), vehicle: Klucel (hydroxypropylcellulose) (HPC)
[9] = dose: 12.5 mg/kg/injection, schedule: Q01DX009 (ip), vehicle: saline with Tween-80
[10] = dose: 25.0 mg/kg/injection, schedule: Q01DX009 (ip), vehicle: saline with Tween-80
[11] = dose: 50.0 mg/kg/injection, schedule: Q01DX009 (ip), vehicle: saline with Tween-80
[12] = dose: 50.0 mg/kg/injection, schedule: Q01DX009 (ip), vehicle: Klucel (hydroxypropylcellulose) (HPC)
[13] = dose: 100.0 mg/kg/injection, schedule: Q01DX009 (ip), vehicle: Klucel (hydroxypropylcellulose) (HPC)
[14] = dose: 60.0 mg/kg/injection, schedule: Q01DX005 (ip), vehicle: saline with Tween-80
[15] = dose: 120.0 mg/kg/injection, schedule: Q01DX005 (ip), vehicle: saline with Tween-80
[16] = dose: 100.0 mg/kg/injection, schedule: Q01DX009 (ip), vehicle: saline with Tween-80

Measured: T/C

CCN(CC)CCOC(=O)Cc1cccc2c(=O)cc(-c3ccccc3)oc12
inactive: dose: 12.5 mg/kg/injection, schedule: Q01DX009 (ip), vehicle: saline 120 % of control | dose: 25.0 mg/kg/injection, schedule: Q01DX009 (ip), vehicle: saline 108 % of control and 97 % of control | [1] 100 % of control | dose: 100.0 mg/kg/injection, schedule: Q01DX001 (ip), vehicle: saline 102 % of control | [2] 108 % of control | dose: 100.0 mg/kg/injection, schedule: Q04DX002 (ip), vehicle: saline 107 % of control | [3] 107 % of control | dose: 100.0 mg/kg/injection, schedule: Q08DX002 (ip), vehicle: saline 111 % of control | dose: 200.0 mg/kg/injection, schedule: Q01DX001 (ip), vehicle: saline 114 % of control | dose: 200.0 mg/kg/injection, schedule: Q04DX002 (ip), vehicle: saline 110 % of control | dose: 200.0 mg/kg/injection, schedule: Q08DX002 (ip), vehicle: saline 117 % of control | dose: 300.0 mg/kg/injection, schedule: Q01DX001 (ip), vehicle: saline 117 % of control | dose: 300.0 mg/kg/injection, schedule: Q04DX002 (ip), vehicle: saline 114 % of control | dose: 300.0 mg/kg/injection, schedule: Q08DX002 (ip), vehicle: saline 112 % of control | dose: 400.0 mg/kg/injection, schedule: Q01DX001 (ip), vehicle: saline 116 % of control

CCCCN=C1NS(=O)(=O)c2ccccc21
inactive: [4] 103 % of control | [5] 107 % of control | [6] 103 % of control

CCCCCCCCCCCCCCCC(=O)N(CC#CCN(C(=O)CCCCCCCCCCCCCCC)C(C)CCCN(CC)CC)C(C)CCCN(CC)CC (stereo unspecified)
inactive: dose: 25.0 mg/kg/injection, schedule: Q01DX009 (ip), vehicle: other 97 % of control | dose: 50.0 mg/kg/injection, schedule: Q01DX009 (ip), vehicle: other 101 % of control

CC(=O)Nc1ccc(SSc2ccc(NC(C)=O)c3cccnc23)c2ncccc12
inactive: dose: 0.78 mg/kg/injection, schedule: Q01DX005 (ip), vehicle: saline with Tween-80 91 % of control | dose: 1.56 mg/kg/injection, schedule: Q01DX005 (ip), vehicle: saline with Tween-80 91 % of control | dose: 3.13 mg/kg/injection, schedule: Q01DX005 (ip), vehicle: saline with Tween-80 90 % of control | dose: 12.5 mg/kg/injection, schedule: Q01DX005 (ip), vehicle: saline with Tween-80 86 % of control | dose: 25.0 mg/kg/injection, schedule: Q01DX005 (ip), vehicle: saline with Tween-80 95 % of control | [4] 115 % of control

Cc1cc(C)nc(NS(=O)(=O)c2ccc(N=c3c4ccccc4n(C)c4ccccc34)cc2)n1
inactive: [4] 90 % of control | [5] 97 % of control | [6] 90 % of control

Cc1nc(C)n2cnnc2c1C
inactive: [3] 96 % of control | dose: 200.0 mg/kg/injection, schedule: Q04DX003 (ip), vehicle: saline 95 % of control

Nc1ccc(S(=O)(=O)n2c(=O)oc3cc(Cl)ccc32)cc1
inactive: [7] 100 % of control | dose: 25.0 mg/kg/injection, schedule: Q01DX005 (ip), vehicle: Klucel (hydroxypropylcellulose) (HPC) 93 % of control | [8] 102 % of control and 91 % of control

COc1ccc2c(c1)nnn2C(=O)/C=C/c1ccccc1
inactive: [9] 94 % of control | [10] 107 % of control | [11] 101 % of control and 104 % of control

COc1cc(NCCCCCCNC(C)C)c2ncccc2c1OC
inactive: dose: 1.56 mg/kg/injection, schedule: Q01DX005 (ip), vehicle: Klucel (hydroxypropylcellulose) (HPC) 99 % of control | dose: 3.12 mg/kg/injection, schedule: Q01DX005 (ip), vehicle: Klucel (hydroxypropylcellulose) (HPC) 105 % of control | dose: 6.25 mg/kg/injection, schedule: Q01DX005 (ip), vehicle: Klucel (hydroxypropylcellulose) (HPC) 105 % of control | [7] 105 % of control

NC(=S)N/N=C/C=N/NC(N)=S
inactive: dose: 50.0 mg/kg/injection, schedule: Q01DX009 (ip), vehicle: saline 92 % of control | dose: 100.0 mg/kg/injection, schedule: Q01DX009 (ip), vehicle: saline 90 % of control | dose: 200.0 mg/kg/injection, schedule: Q01DX009 (ip), vehicle: saline 101 % of control

CC(C)=CCC(O)/C(C)=C/CC/C(=C/CC/C(C)=C/CO)CO (stereo unspecified)
inactive: dose: 3.88 mg/kg/injection, schedule: Q01DX005 (ip), vehicle: Klucel (hydroxypropylcellulose) (HPC) 93 % of control | dose: 7.75 mg/kg/injection, schedule: Q01DX005 (ip), vehicle: Klucel (hydroxypropylcellulose) (HPC) 100 % of control | dose: 15.5 mg/kg/injection, schedule: Q01DX005 (ip), vehicle: Klucel (hydroxypropylcellulose) (HPC) 102 % of control | dose: 31.0 mg/kg/injection, schedule: Q01DX005 (ip), vehicle: Klucel (hydroxypropylcellulose) (HPC) 102 % of control

CCCCCCCCCCCCNC(=O)c1ccc[n+](Cc2ccc(Cl)c(Cl)c2)c1
inactive: dose: 3.13 mg/kg/injection, schedule: Q01DX009 (ip), vehicle: saline with Tween-80 100 % of control | dose: 6.25 mg/kg/injection, schedule: Q01DX009 (ip), vehicle: saline with Tween-80 95 % of control | [9] 100 % of control

O=P(O)(O)SP(=O)(O)O.[Co]
inactive: [12] 105 % of control | [13] 94 % of control

COc1ccc(/C=C/C(=N/NC(=O)c2ccccc2)C(C)CN(C)C)cc1 (stereo unspecified)
inactive: dose: 60.0 mg/kg/injection, schedule: Q01DX005 (ip), vehicle: Klucel (hydroxypropylcellulose) (HPC) 104 % of control | dose: 120.0 mg/kg/injection, schedule: Q01DX005 (ip), vehicle: Klucel (hydroxypropylcellulose) (HPC) 111 % of control

Nc1nc(N)nc(-c2cccc(Cl)c2)n1
inactive: [14] 100 % of control | [15] 98 % of control | dose: 240.0 mg/kg/injection, schedule: Q01DX005 (ip), vehicle: saline with Tween-80 100 % of control

O=c1c2ccccc2n(-c2ccccc2)c2ccccc12
inactive: [8] 100 % of control | dose: 100.0 mg/kg/injection, schedule: Q01DX005 (ip), vehicle: Klucel (hydroxypropylcellulose) (HPC) 100 % of control | dose: 200.0 mg/kg/injection, schedule: Q01DX005 (ip), vehicle: Klucel (hydroxypropylcellulose) (HPC) 99 % of control

N#CC1CSCC1=O (stereo unspecified)
inactive: [10] 103 % of control | [11] 100 % of control | [16] 99 % of control

CC(C)(C)C1=CC(=C/C=C/c2cc(C(C)(C)C)[o+]c(C(C)(C)C)c2)C=C(C(C)(C)C)O1
inactive: dose: 1.56 mg/kg/injection, schedule: Q01DX009 (ip), vehicle: Klucel (hydroxypropylcellulose) (HPC) 105 % of control | dose: 3.12 mg/kg/injection, schedule: Q01DX009 (ip), vehicle: Klucel (hydroxypropylcellulose) (HPC) 96 % of control | dose: 6.25 mg/kg/injection, schedule: Q01DX009 (ip), vehicle: Klucel (hydroxypropylcellulose) (HPC) 109 % of control and 111 % of control | dose: 12.5 mg/kg/injection, schedule: Q01DX009 (ip), vehicle: Klucel (hydroxypropylcellulose) (HPC) 108 % of control and 116 % of control | dose: 25.0 mg/kg/injection, schedule: Q01DX009 (ip), vehicle: Klucel (hydroxypropylcellulose) (HPC) 109 % of control

CC(=O)c1c(O)c(C)c(O)c2c1OC1=Cc3c(c(C)nn3C)C(=O)C12C (stereo unspecified)
inactive: dose: 6.25 mg/kg/injection, schedule: Q01DX009 (ip), vehicle: gum acacia 100 % of control and 109 % of control | dose: 50.0 mg/kg/injection, schedule: Q01DX009 (ip), vehicle: gum acacia 119 % of control and 92 % of control and 93 % of control

NNC(=O)C(N)Cc1ccc(O)cc1 (stereo unspecified)
inactive: [1] 100 % of control | [2] 103 % of control | dose: 200.0 mg/kg/injection, schedule: Q01DX005 (ip), vehicle: saline 115 % of control

CC(=O)OCC(=O)[C@@]1(O)CC[C@H]2[C@@H]3C[C@H](C)C4=CC(=O)C=C[C@]4(C)[C@H]3[C@@H](O)C[C@@]21C
inactive: [16] 118 % of control | dose: 200.0 mg/kg/injection, schedule: Q01DX009 (ip), vehicle: saline with Tween-80 104 % of control | dose: 400.0 mg/kg/injection, schedule: Q01DX009 (ip), vehicle: saline with Tween-80 100 % of control

OC1(C2NCCc3ccccc32)CCN(CCc2ccccc2)CC1 (stereo unspecified)
inactive: [12] 87 % of control | [13] 94 % of control

Cc1cc(Nc2ccc3c(c2)OCO3)c2cc(C3CCCCC3)ccc2n1
inactive: [14] 95 % of control | [15] 91 % of control
